23 compounds from US8431563B2 (priority 2010, dated 2013) can be followed below.

Where a name gives a salt, the structure may show the parent alone.

Test [1] addresses T1, GKRP (Glucokinase Regulatory Protein) with human His-hepatic GK (Homo sapiens, UniProt Q14397).
T1 sequence (Q14397 1-625): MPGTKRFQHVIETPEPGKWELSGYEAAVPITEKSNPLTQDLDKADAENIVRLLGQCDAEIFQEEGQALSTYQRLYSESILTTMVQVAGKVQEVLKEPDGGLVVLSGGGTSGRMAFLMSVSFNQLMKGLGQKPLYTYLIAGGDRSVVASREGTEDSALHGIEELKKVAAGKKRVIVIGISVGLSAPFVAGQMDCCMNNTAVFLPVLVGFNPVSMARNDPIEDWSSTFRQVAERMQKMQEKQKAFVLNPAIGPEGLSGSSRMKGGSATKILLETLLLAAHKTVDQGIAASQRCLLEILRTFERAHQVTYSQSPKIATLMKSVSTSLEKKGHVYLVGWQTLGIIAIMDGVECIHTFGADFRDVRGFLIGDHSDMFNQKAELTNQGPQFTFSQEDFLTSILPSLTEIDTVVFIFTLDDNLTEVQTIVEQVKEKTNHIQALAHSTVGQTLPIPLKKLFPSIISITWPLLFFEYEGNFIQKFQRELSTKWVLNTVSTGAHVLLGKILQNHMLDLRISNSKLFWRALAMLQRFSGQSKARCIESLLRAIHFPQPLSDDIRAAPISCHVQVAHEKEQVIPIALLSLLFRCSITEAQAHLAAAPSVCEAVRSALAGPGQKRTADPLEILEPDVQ
Nature of the test: GKRP NADPH Coupled Assay. Format: biochemical. As to conditions: indirect measure of glucose-6-phosphate, fluorescence, 1 μM GKRP (10×), 20 nM GK (5×). An outline of the steps:
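Human His-hepatic GK (5× stock 20 nM) in 50 mM Tris pH 7.5, 4 mM MgCl2, 6% DMSO, 0.1% BSA, 0.01% Brij-35, with GKRP and compound preincubated 30 min, then reaction 1 h at RT. Glucose-6-phosphate read indirectly via G6P dehydrogenase-coupled NADPH formation from β-NADP (2× stop/detection reagent, pH 9.2, 5 min).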

Test [2] has as its target T1, GKRP (Glucokinase Regulatory Protein) with human His-hepatic GK. Kind of test: GKRP LC MS/MS Biochemical Assay. As to conditions: 13C-glucose-6-phosphate formation, 1 μM GKRP (10×), 30 nM GK (5×). An outline of the steps: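 Human His-hepatic GK (working stock 30 nM, 5×) with GKRP in 50 mM Tris pH 7.5, 4 mM MgCl2, 6% DMSO, DTT, BSA and Brij-35. After a 30 min preincubation, GK was added and the reaction ran 30 min at room temperature. Stopped with acetonitrile; 13C-glucose-6-phosphate formed from 13C-glucose quantified by LC MS/MS.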

The mark [3] stands for this setting: read-out: GK-GKRP EC50 (NADPH-coupled).
Setting [4] is: read-out: GK-GKRP EC50 (LC MS/MS).

`CC(O)(c1ccc(N2CCN(S(=O)(=O)c3cccs3)C[C@@H]2Cc2ccccc2)cc1)C(F)(F)F` (single isomer, unassigned) [Example 65 Peak #1]: the results for the EC50 in test [1] (GK-GKRP EC50 (NADPH-coupled)) and in test [2] (GK-GKRP EC50 (LC MS/MS)) were 367 nM and 643 nM, respectively.
For `CC(O)(c1ccc(N2CCN(S(=O)(=O)c3cccs3)CC2CC#N)cc1)C(F)(F)F` (mixture of isomers) [Example 55, (4-(2-thiophenylsulfonyl)-1-(4-(2,2,2-trifluoro-1-hydroxy-1-methylethyl)phenyl)-2-piperazinyl)acetonitrile], the EC50 in test [1] (setting [3]) stood at 3030 nM; in test [2] (setting [4]) it was 3940 nM.
With `CC1CN(CC2CN(S(=O)(=O)c3cccs3)CCN2c2ccc(C(C)(O)C(F)(F)F)cc2)CCO1` (mixture of isomers) [Example 49, 1,1,1-trifluoro-2-(4-(2-((2-methyl-4-morpholinyl)methyl)-4-(2-thiophenylsulfonyl)-1-piperazinyl)phenyl)-2-propanol], the results for the EC50 in test [1] (GK-GKRP EC50 (NADPH-coupled)) and in test [2] (GK-GKRP EC50 (LC MS/MS)) were 647 nM and 707 nM, respectively.
As for `CC(O)(c1ccc(N2CCN(S(=O)(=O)c3cccs3)C[C@@H]2Cc2ccccc2)cc1)C(F)(F)F` (single isomer, unassigned) [Example 65 Peak #2], the EC50 is 166 nM in test [1] (GK-GKRP EC50 (NADPH-coupled)) and 240 nM in test [2] (GK-GKRP EC50 (LC MS/MS)).
Take `O=S(=O)(c1ccccc1)N1CCN(c2ccc(C(O)(C(F)(F)F)C(F)(F)F)cc2)CC1` [Example 2, 1,1,1,3,3,3-hexafluoro-2-(4-(4-(phenylsulfonyl)-1-piperazinyl)phenyl)-2-propanol]: the values for the EC50 in test [1] (GK-GKRP EC50 (NADPH-coupled)) and in test [2] (GK-GKRP EC50 (LC MS/MS)) were 803 nM and 1100 nM, respectively.
In the case of `C[C@H]1CN(S(=O)(=O)c2nccs2)CCN1c1ccc(C(O)(C(F)(F)F)C(F)(F)F)cc1` [Example 31, 1,1,1,3,3,3-hexafluoro-2-(4-((2S)-2-methyl-4-(1,3-thiazol-2-ylsulfonyl)-1-piperazinyl)phenyl)-2-propanol trifluoroacetate], the EC50 came to 561 nM in test [1] (GK-GKRP EC50 (NADPH-coupled)) and 702 nM in test [2] (GK-GKRP EC50 (LC MS/MS)).
For the compound `CC(O)(c1ccc(N2CCN(S(=O)(=O)c3cccs3)CC2CN2CC(O)C2)cc1)C(F)(F)F` (mixture of isomers) [Example 53, 1-((4-(2-thiophenylsulfonyl)-1-(4-(2,2,2-trifluoro-1-hydroxy-1-methylethyl)phenyl)-2-piperazinyl)methyl)-3-azetidinol], the EC50 in test [1] (GK-GKRP EC50 (NADPH-coupled)) worked out at 2260 nM; in test [2] (GK-GKRP EC50 (LC MS/MS)), 1790 nM.
`CC(O)(c1ccc(-c2ccc(S(=O)(=O)c3ccccc3)c(Cl)c2)nc1)C(F)(F)F` (racemic) [Example 18, 2-(6-(3-chloro-4-(phenylsulfonyl)phenyl)-3-pyridinyl)-1,1,1-trifluoro-2-propanol]: the EC50 was found to be 3750 nM in test [1] (GK-GKRP EC50 (NADPH-coupled)) and 3570 nM in test [2] (GK-GKRP EC50 (LC MS/MS)).
On to `CC(C)CC1CN(S(=O)(=O)c2cccs2)CCN1c1ccc(C(C)(O)C(F)(F)F)cc1` (mixture of isomers) [Example 57, 1,1,1-trifluoro-2-(4-(2-(2-methylpropyl)-4-(2-thiophenylsulfonyl)-1-piperazinyl)phenyl)-2-propanol], for which the EC50 in test [1] (setting [3]) is 655 nM; in test [2] (setting [4]), 1020 nM.
For the compound `O=S(=O)(c1ccsc1)N1CCN(c2ccc(C(O)(C(F)(F)F)C(F)(F)F)cc2)CC1` [Example 3, 1,1,1,3,3,3-hexafluoro-2-(4-(4-(3-thiophenylsulfonyl)-1-piperazinyl)phenyl)-2-propanol], the values for the EC50 in test [1] (GK-GKRP EC50 (NADPH-coupled)) and in test [2] (GK-GKRP EC50 (LC MS/MS)) were 597 nM and 964 nM, respectively.
Take `CC(O)(c1ccc(N2CCN(S(=O)(=O)c3cccs3)CC2Cc2cccc(F)c2)cc1)C(F)(F)F` (mixture of isomers) [Example 39, 1,1,1-trifluoro-2-(4-(2-(3-fluorobenzyl)-4-(2-thiophenylsulfonyl)-1-piperazinyl)phenyl)-2-propanol]: the EC50 in test [1] (GK-GKRP EC50 (NADPH-coupled)) worked out at 802 nM; in test [2] (GK-GKRP EC50 (LC MS/MS)), 1090 nM.
Regarding `Cn1ccc(S(=O)(=O)N2CCN(c3ccc(C(O)(C(F)(F)F)C(F)(F)F)cc3)CC2)n1` [Example 5, 1,1,1,3,3,3-hexafluoro-2-(4-(4-((1-methyl-1H-pyrazol-3-yl)sulfonyl)-1-piperazinyl)phenyl)-2-propanol], the EC50 in test [1] (GK-GKRP EC50 (NADPH-coupled)) worked out at 1580 nM; in test [2] (GK-GKRP EC50 (LC MS/MS)), 5380 nM.
Consider `C[C@H]1COCCN1CC1CN(S(=O)(=O)c2cccs2)CCN1c1ccc(C(C)(O)C(F)(F)F)cc1` (single isomer, unassigned) [Example 45 Peak #1], for which the EC50 in test [1] (GK-GKRP EC50 (NADPH-coupled)) is 52 nM; in test [2] (GK-GKRP EC50 (LC MS/MS)), 62 nM.
For `C[C@H]1COCCN1C[C@H]1CN(S(=O)(=O)c2cccs2)CCN1c1ccc([C@@](C)(O)C(F)(F)F)cc1` [Example 45 Peak #2, 1,1,1-trifluoro-2-(4-((2S)-2-(((3S)-3-methyl-4-morpholinyl)methyl)-4-(2-thiophenylsulfonyl)-1-piperazinyl)phenyl)-2-propanol], the EC50 amounted to 68 nM in test [1] (GK-GKRP EC50 (NADPH-coupled)) and 71 nM in test [2] (GK-GKRP EC50 (LC MS/MS)).
For `CC1(C)CN(CC2CN(S(=O)(=O)c3cccs3)CCN2c2ccc(C(C)(O)C(F)(F)F)cc2)CCO1` (mixture of isomers) [Example 47, 2-(4-(2-((2,2-dimethyl-4-morpholinyl)methyl)-4-(2-thiophenylsulfonyl)-1-piperazinyl)phenyl)-1,1,1-trifluoro-2-propanol], the EC50 in test [1] (GK-GKRP EC50 (NADPH-coupled)) was 182 nM; in test [2] (GK-GKRP EC50 (LC MS/MS)) it was 295 nM.
For `CC[C@H]1CN(S(=O)(=O)c2cccs2)CCN1c1ccc(C(O)(C(F)(F)F)C(F)(F)F)cc1` [Example 63, 2-(4-((2S)-2-ethyl-4-(2-thiophenylsulfonyl)-1-piperazinyl)phenyl)-1,1,1,3,3,3-hexafluoro-2-propanol], in that order: 679 nM and 1370 nM.
With `COc1cccc(-c2cc(C(O)(C(F)(F)F)C(F)(F)F)ccc2N2CCN(S(=O)(=O)c3cccs3)CC2)c1` [Example 70, 1,1,1,3,3,3-hexafluoro-2-(3′-methoxy-6-(4-(2-thiophenylsulfonyl)-1-piperazinyl)-3-biphenylyl)-2-propanol trifluoroacetate], the EC50 in test [1] (GK-GKRP EC50 (NADPH-coupled)) stood at 3340 nM; in test [2] (GK-GKRP EC50 (LC MS/MS)) it was 1820 nM.
For `O=S(=O)(c1ccccc1)N1CCN(c2ccc(C(O)(C(F)(F)F)C(F)(F)F)cn2)CC1` [Example 22, 1,1,1,3,3,3-hexafluoro-2-(6-(4-(phenylsulfonyl)-1-piperazinyl)-3-pyridinyl)-2-propanol] the same measures were 2730 nM and 2080 nM.
For the compound `O=S(=O)(c1ccccc1)c1ccc(-c2ccc(C(O)(C(F)(F)F)C(F)(F)F)cc2)cc1` [Example 21, 1,1,1,3,3,3-hexafluoro-2-(4′-(phenylsulfonyl)-4-biphenylyl)-2-propanol], the EC50 in test [1] (GK-GKRP EC50 (NADPH-coupled)) was 1660 nM; in test [2] (GK-GKRP EC50 (LC MS/MS)), 3960 nM.
For `CC(O)(c1ccc(N2CCN(S(=O)(=O)c3cccs3)CC2CN2C[C@H]3C[C@@H]2CO3)cc1)C(F)(F)F` (stereo partly drawn) [Example 50, 1,1,1-trifluoro-2-(4-(2-((1R,4R)-2-oxa-5-azabicyclo[2.2.1]hept-5-ylmethyl)-4-(2-thiophenylsulfonyl)-1-piperazinyl)phenyl)-2-propanol], in that order: 670 nM and 880 nM.
For the compound `O=S(=O)(c1cccs1)N1CCN(c2ccc(C(O)(C(F)(F)F)C(F)(F)F)cc2-c2ccsc2)CC1` [Example 73, 1,1,1,3,3,3-hexafluoro-2-(3-(3-thiophenyl)-4-(4-(2-thiophenylsulfonyl)-1-piperazinyl)phenyl)-2-propanol], the EC50 in test [1] (GK-GKRP EC50 (NADPH-coupled)) amounted to 3500 nM; in test [2] (GK-GKRP EC50 (LC MS/MS)), 1900 nM.
For `O=S(=O)(c1c[nH]cn1)N1CCN(c2ccc(C(O)(C(F)(F)F)C(F)(F)F)cc2)CC1` [Example 60, 1,1,1,3,3,3-hexafluoro-2-(4-(4-(1H-imidazol-4-ylsulfonyl)-1-piperazinyl)phenyl)-2-propanol] the same measures were 2340 nM and 2320 nM.
For `Cc1cccc(CC2CN(S(=O)(=O)c3cccs3)CCN2c2ccc(C(O)(C(F)(F)F)C(F)(F)F)cc2)c1` (racemic) [Example 42, 1,1,1,3,3,3-hexafluoro-2-(4-(2-(3-methylbenzyl)-4-(2-thiophenylsulfonyl)-1-piperazinyl)phenyl)-2-propanol hydrochloride] the same measures were 724 nM and 688 nM.
